According to patent EP0565593B1, “REDUCING PESTICIDAL INTERACTIONS IN CROPS” (priority 1990, dated 1992):

Tested on: Corn
Assay: Multi-crop greenhouse test, herbicide POE (Examples 62-64; Tables 61-63)
Assay type: in vivo
Conditions: COUNTER 15G and BEACON; Example 62

Row | SMILES | corn injury
1 | CC1(C)OC(c2ccco2)CN1C(=O)C(Cl)Cl (stereo not drawn) [Antidote No. 1, Oxazolidine, 3-(dichloroacetyl)-2,2-dimethyl-5-(2-furanyl)-] | effectively reduced
2 | O=C(OCc1ccccc1)c1sc(Cl)nc1C(F)(F)F [Antidote No. 7, 5-Thiazolecarboxylic acid, 2-chloro-4-(trifluoromethyl)-, (phenylmethyl) ester] | effectively reduced
3 | COC(=O)COC(c1ccccc1)c1ccccc1 [Antidote No. 12, Acetic acid, (diphenylmethoxy)-, methyl ester] | effectively reduced
